Test results reported in patent US8314140B2, “4-hydroxythiobenzamide derivatives of drugs” (Antibe Therapeutics Inc., priority 2006, dated 2012).
Entries after “also recorded” stand apart in the source; their conditions may differ.

Legend:
COX-1 [1] = target: COX-1 (Homo sapiens, UniProt P23219); conditions: FIG. 16
Description: Aliquots (0.5 mL) of blood from healthy human volunteers were added to glass tubes containing 10 uL of methanol alone, or one of the test drugs prepared such that the final concentration would be 0.1, 0.3, 1 or 3 μM. The tubes were placed in water bath (37° C.) with gentle shaking for 45 min, after which they were centrifuged (1,000×g) for 10 minutes. The concentration of thromboxane B2 in each sample was then determined using a specific ELISA, as in the studies shown in FIG. 11.

[2] = test system: leukocyte adherence to the vascular endothelium; test: Leukocyte adherence after NSAID or derivative, intravital microscopy (Example 21); assay type: in vivo, rat; conditions: for number of adherent leukocytes compared to the parent drug alone: comment on Table 2
Text: (§1) Briefly, post-capillary mesenteric venules in anestheitized rats are examined under a light microscope.

gastric damage [3] = test: Incidence of gastric damage at end of the leukocyte adherence experiment; conditions: for Percent Incidence of Gastric Damage: intragastric 30 μmol/kg (naproxen and Compound XX 60 μmol/kg), end of experiment
Text: as §1

gastric damage [4] = test: Gastric damage score 3 h after oral dosing; assay type: in vivo, rat; conditions: oral 60 μmol/kg, 3 hours; FIG. 10
Text: There were 5 rats in each group.
Each group consisted of 5 rats.

COX-1 [5] = target: T1, COX-1 (Rattus norvegicus, UniProt Q63921); test: Whole blood thromboxane B2 synthesis in treated rats; assay type: in vivo; conditions: 60 μmol/kg oral; versus vehicle; FIG. 11
T1 construct: whole blood thromboxane synthesis, which occurs via COX-1; from tissue; host or cells: rat whole blood, ex vivo after oral dosing
T1 sequence (Q63921 27-602): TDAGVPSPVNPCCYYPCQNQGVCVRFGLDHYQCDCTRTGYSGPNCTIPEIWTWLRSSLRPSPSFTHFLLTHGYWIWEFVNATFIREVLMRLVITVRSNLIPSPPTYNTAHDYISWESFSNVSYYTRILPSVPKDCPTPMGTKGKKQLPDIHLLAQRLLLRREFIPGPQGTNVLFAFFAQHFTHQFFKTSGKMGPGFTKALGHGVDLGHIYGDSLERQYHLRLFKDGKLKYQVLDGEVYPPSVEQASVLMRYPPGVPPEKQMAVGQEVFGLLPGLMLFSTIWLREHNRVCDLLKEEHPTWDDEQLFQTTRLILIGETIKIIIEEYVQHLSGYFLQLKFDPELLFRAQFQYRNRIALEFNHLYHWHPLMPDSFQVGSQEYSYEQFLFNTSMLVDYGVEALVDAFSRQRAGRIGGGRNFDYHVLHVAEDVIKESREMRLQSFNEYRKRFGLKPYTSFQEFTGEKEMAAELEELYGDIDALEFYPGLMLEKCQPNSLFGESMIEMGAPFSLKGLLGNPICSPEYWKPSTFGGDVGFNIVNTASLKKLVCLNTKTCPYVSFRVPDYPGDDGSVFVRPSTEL
Description: Inhibition of COX-1 was also measured using the same rats. […] The samples were then centrifuged for 3 min at 9,000 g and the supernatant was frozen at −80° C. for subsequent measurement of thromboxane B2 concentrations using a specific ELISA.
Inhibition of COX-1 was also measured using the same rats, using the same method as described for FIG. 11.

gastric ulcers = test: Healing of acetic acid-induced gastric ulcers; assay type: in vivo, rat; conditions: oral twice-daily for 4 days; 30 μmol/kg (naproxen, Compound XX 60 μmol/kg); FIG. 17
Description: Gastric ulcers were induced via serosal application of acetic acid, as described by Elliott et al., A nitric oxide-releasing nonsteroidal anti-inflammatory drug accelerates gastric ulcer healing in rats. […] After 4 days of such treatment, the rats were euthanized and the stomach was excised and photographed. The area (in mm^2) of the ulcer was determined planimetrically by an individual unaware of the treatments given to the rats.

[6] = H2S generation in buffer and liver homogenate (Example 15); assay type: in vitro ADME, rat; conditions: 1 mM compound, FIG. 6
Description: (Compound XXVII) was tested for H2S generation under three different conditions. Concentrations of H2S that were generated within 1 hour from 1 mM concentrations of L-cysteine, 4-HBT (4-hydroxythiobenzamide) and 5-amino-2-(4-thiocarbamoyl-phenoxycarbonyloxy)-benzoic acid were measured. H2S release was tested under three conditions: (i) when the compound was in buffer, (ii) when the compound was in a liver homogenate, and (iii) when the compound was in the liver homogenate together with an inhibitor of cystathionine γ-lyase (PAG=DL-propargylglycine; 2 mM). Results are shown in FIG. 6. *p<0.05 compared to the release from the vehicle group. ^ψp>0.05 versus the corresponding ‘homogenate’ group. The enzymatic capacity for H2S production was determined using the same reactor as described previously (Khan et al. (1980) Microchem J 25: 388-395, incorporated herein by reference). Two ml of an assay reaction mixture was introduced in the reactor. The mixture contained 1 mM L-cysteine (or compound), 2 mM pyridoxal 5′-phosphate, 100 mM potassium phosphate buffer (pH=7.4). A constant stream of nitrogen was passed through the mixture via gas-inlet capillary. Reactions were initiated by transferring the tubes from ice bath to a 37° C. water bath. The stream of nitrogen carried the sulfide acid in the second reactor containing 4 ml of sulfide anti-oxidant buffer (SAOB) solution, consisting of 2M KOH, 1M salicylic acid and 0.22M ascorbic acid at pH 12.8[5]. After incubating at 37° C. for 90 minutes, 1 ml of 10% trichloroacetic acid solution was added to mixture to stop the reaction. The remainder H2S in the mixture was carried out via nitrogen stream by other 60 minutes of incubation at 37° C. The concentration of sulfide in SAOB solution was measured with a sulfide sensitive electrode (Model 9616 S^2−/Ag^+ electrode, Orion Research, Beverly, Mass., USA). For studies in which the test compounds were incubated in liver homogenate, 100-150 mg of isolated rat livers were homogenized in 1 ml of ice-cold T-PER protein extractor. The homogenates were added to the reaction mixture at a concentration of 10% (wt/vol). DL-propargylglycine 2 mM was incubated with liver homogenates for 5 min at 37° C. prior the enzyme reaction. Khan, S. U. Morris, G. F. and Hidiroglou, M. (1980) Rapid estimation of sulfide in rumen and blood with a sulfide-specific ion electrode. Microchem J. 25:388-395, incorporated herein by reference.

[7] = test system: carrageenan-induced paw edema; test: Carrageenan hindpaw edema model; assay type: in vivo, rat; conditions: oral 30 min prior to carrageenan; diclofenac 1, 3 or 10 mg/kg; Compound XVII equimolar to diclofenac 3 mg/kg; FIG. 14
Description: Male, Wistar rats weighing 175-200 g were given the test compounds orally 30 min prior to subplantar injection of 100 ul of 1% lambda carrageenan.

visceral pain perception = test: Rat model of visceral pain perception (colorectal distension, AWR score); assay type: in vivo
Description: A rat model of visceral pain perception, a pre-clinical model of irritable bowel syndrome, was used in the following example. Rats (male, Wistar, 200-250 g, obtained from Charles River, Monza, Italy), were housed in plastic cages and maintained under controlled conditions with 12-hours light/dark cycle with lights on at 7.00 AM. Tap water and standard laboratory chow were freely available. Before experiments, rats were individually trained by spending 2-3 hours per day in a plexiglass cage for 2-3 days. It allowed them to adjust to a movement-restriction environment. Food was withheld for 12 hours before colorectal distension (CRD) recording were performed. Experiments were performed in awake rats and were conducted in a blind manner in that the observer was not aware of the identity of drug administered to each animal.
In the testing day, rats were sedated with ether inhalation and a 2 cm long latex balloon was inserted intrarectally 2 cm from the anal verge and fixed at the base of the tail. The balloon was connected via a double-barreled cannula to a pressure transducer to continuously monitoring the rectal pressure by a computer (PowerLab PC, A.D. Instruments, Milford, Mass., USA) and to a syringe for inflation/deflation of the balloon. The rats were then housed in a small cage (20×8×8 cm) on an elevated Plexiglas™ platform and allowed to wake up and adapt for 1 hour. After recovery from sedation, animals underwent the CRD procedure and behavioral responses were tested. The night before the experiments, the balloons were inflated and left overnight so the latex stretched and the balloons became compliant.
CRD of 20 seconds, performed every 5 minutes, was applied in increment of 0.4 ml starting from 0.4 ml up to 1.6 ml water. To achieve an accurate measurement of the colonic parameters and perception, the distensions were repeated twice for each intensity and data for each animal were averaged for analysis. Each animal underwent a double set of CRD. Twenty minutes after the first sequence of CRD (0.4 mL-1.6 ml water), drugs were administered intraperitoneally (i.p.) and a second set of CRD was performed. Behavioral responses during the first and the second set of CRD were assessed and compared.
Behavioral response to CRD was assessed by measuring the abdominal withdrawal reflex (AWR) using a semiquantitative score (1).
A rat model of visceral pain perception as described above was used to compare pain perception scores for 5-amino-2-(4-thiocarbamoyl-phenoxycarbonyloxy)-benzoic acid (Compound XXVII) with or without glibenclamide, an inhibitor of ATP-sensitive K^+ (KATP) channels.
Experiments were carried out as described in Example 13, except that groups of 5 rats each were treated with vehicle, trimebutine maleate (10 mg/kg), or with equimolar doses of trimebutine thiocarbamoylbenzoate (Compound III) or thiocarbamolybenzoate alone.

Chain of COX-1 (Homo sapiens, UniProt P23219) (P23219 24-599): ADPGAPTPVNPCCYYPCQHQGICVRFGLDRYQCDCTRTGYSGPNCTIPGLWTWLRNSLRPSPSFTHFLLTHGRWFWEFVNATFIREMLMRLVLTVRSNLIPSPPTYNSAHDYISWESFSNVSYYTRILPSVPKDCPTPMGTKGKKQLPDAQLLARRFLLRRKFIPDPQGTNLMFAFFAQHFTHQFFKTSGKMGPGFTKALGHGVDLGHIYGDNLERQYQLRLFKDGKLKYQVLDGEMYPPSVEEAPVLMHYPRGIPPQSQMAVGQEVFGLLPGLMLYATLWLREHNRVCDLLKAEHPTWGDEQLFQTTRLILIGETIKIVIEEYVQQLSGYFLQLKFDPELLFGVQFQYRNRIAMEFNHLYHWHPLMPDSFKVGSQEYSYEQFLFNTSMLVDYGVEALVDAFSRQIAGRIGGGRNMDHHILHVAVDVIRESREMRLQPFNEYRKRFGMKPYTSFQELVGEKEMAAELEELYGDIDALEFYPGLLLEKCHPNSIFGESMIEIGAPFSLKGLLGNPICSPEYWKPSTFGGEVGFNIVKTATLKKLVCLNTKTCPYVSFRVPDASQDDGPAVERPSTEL

COc1ccc2c(c1)c(CC(=O)Oc1ccc(C(N)=S)cc1)c(C)n2C(=O)c1ccc(Cl)cc1 [Compound XIX, [1-(4-Chloro-benzoyl)-5-methoxy-2-methyl-1-H-indol-3-yl]-acetic acid 4-thiocarbamoyl-phenyl ester]
thromboxane synthesis by human blood (COX-1 activity) (COX-1 [1]; 0.1, 0.3, 1 or 3 μM, 45 min, 37° C.): concentration-dependent inhibition of COX-1 activity | thromboxane synthesis by human blood (COX-1 activity) versus indomethacin (COX-1 [1]; concentrations of 1 and 3 μM): significantly greater (*p<0.05) inhibition of COX-1 activity than that produced by indomethacin | Number of Adherent Leukocytes ([2]; intragastric 30 μmol/kg (naproxen and Compound XX 60 μmol/kg), mean±SEM): 3.0 ± 0.4 per 100 μm vessel length | Percent Incidence of Gastric Damage (gastric damage [3]): 0% | melting point: 224 to 226 °C

CC(=O)Oc1ccccc1C(=O)Oc1ccc(C(N)=S)cc1 [Compound XVI, 2-Acetoxy-benzoic acid 4-thiocarbamoyl-pheny ester]
number of adherent leukocytes compared to the parent drug alone [2]: significantly reduced the number of adherent leukocytes | percent incidence of gastric damage compared to the parent drug alone (gastric damage [3]; comment on Table 2): significantly reduced the percent incidence of gastric damage | Percent Incidence of Gastric Damage (gastric damage [3]): 0% | melting point: 154 to 156 °C

Cc1ccc(Nc2c(F)cccc2Cl)c(CC(=O)Oc2ccc(C(N)=S)cc2)c1 [Compound XVIII, 4-thiocarbamoylphenyl 2-(2-(2-chloro-6-fluorophenylamino)-5-methylphenyl)acetate]
number of adherent leukocytes compared to the parent drug alone [2]: significantly reduced the number of adherent leukocytes | percent incidence of gastric damage compared to the parent drug alone (gastric damage [3]; comment on Table 2): no incidences of gastric damage | Percent Incidence of Gastric Damage (gastric damage [3]): 0% | melting point: 120 to 122 °C

COc1ccc2cc(C(C)C(=O)Oc3ccc(C(N)=S)cc3)ccc2c1 (centres unmarked) [Compound XX, 2-(6-Methoxy-naphthalen-2-yl)-propionic acid 4-thiocarbamyl-phenyl ester]
gastric damage score (gastric damage [4]): significantly less damage than naproxen itself; also recorded: not detectable | thromboxane B2 synthesis in blood (COX-1 activity) (COX-1 [5]): significantly (*p<0.05) inhibited COX-1 activity | number of adherent leukocytes compared to the parent drug alone [2]: significantly reduced the number of adherent leukocytes | percent incidence of gastric damage compared to the parent drug alone (gastric damage [3]; rat, in vivo): significantly reduced the percent incidence of gastric damage | gastric ulcer healing (ulcer surface area) (gastric ulcers): significantly greater healing

N[C@@H](CS)C(=O)O [L-cysteine, reference compound]
H2S generation in buffer ([6]; buffer pH 7.4, 37° C.): did not release significant H2S | H2S generation in liver homogenate with PAG ([6]; liver homogenate plus DL-propargylglycine 2 mM): markedly inhibited by PAG

O=C(O)Cc1ccccc1Nc1c(Cl)cccc1Cl [diclofenac, reference compound]
paw edema (paw volume increase) [7]: dose-dependently reduced paw edema

COc1ccc(Cl)cc1C(=O)NCCc1ccc(S(=O)(=O)NC(=O)NC2CCCCC2)cc1 [glibenclamide, reference compound]
pain perception score after glibenclamide pretreatment (visceral pain perception; 0.8 mL colorectal distention, glibenclamide 10 mg/kg i.p. 30 min before, FIG. 3): did not affect the pain perception

CCC(COC(=O)c1cc(OC)c(OC)c(OC)c1)(c1ccccc1)N(C)C.NC(=S)c1ccc(C(=O)O)cc1 (centres unmarked) [trimebutine thiocarbamoylbenzoate, 3,4,5-trimethoxybenzoic acid 2-(dimethylamino)-2-phenylbutyl ester 4-thiocarbamoyl benzoate]
perception score (AWR Score) (visceral pain perception; doses equimolar to trimebutine maleate 10 mg/kg, FIG. 7): more effective than either trimebutine maleate or thiocarbamoylbenzoate in reducing visceral pain
